Literature values as cited in US5093338A, “Lipophilic macrolide useful as an immunosuppressant” (Merck & Co., Inc., priority 1991, dated 1992).

Key:
[1] = rats given heterotopic heart allografts
[2] = system: adjuvant-induced arthritis; conditions: rats
[3] = system: transplantation; conditions: combination with Cyclosporin A; heart, kidney, bowel, pancreas or other transplantation
[4] = system: heterotopic heart allografts
[5] = system: antibody production; conditions: rats
[6] = system: allergic encephalomyelitis; conditions: rats

## CO[C@H]1C[C@@H]2CC[C@@H](C)[C@@](O)(O2)C(=O)C(=O)N2CCCC[C@H]2C(=O)O[C@H]([C@H](C)C[C@@H]2CC[C@@H](O)[C@H](OC)C2)CC(=O)[C@H](C)/C=C(\C)[C@@H](O)[C@@H](OC)C(=O)[C@H](C)C[C@H](C)/C=C/C=C/C=C/1C [rapamycin]
[1]
  toxicity compared with that anticipated with FK-506: less toxicity was experienced than would be anticipated with FK-506
[2]
  inhibiting the response to adjuvant-induced arthritis: inhibiting the response to allergic encephalomyelitis,adjuvant-induced arthritis
[3]
  amount of Cyclosporin A required for immunosuppressive effect in combination: reducing the amount of Cyclosporin A required
[4]
  immunosuppressive in rats given heterotopic heart allografts: immunosuppressive
[5]
  inhibiting antibody production: inhibiting the response to allergic encephalomyelitis,adjuvant-induced arthritis and antibody production
[6]
  inhibiting the response to allergic encephalomyelitis: inhibiting the response to allergic encephalomyelitis
